Reference: article PMC6268275, “Use of Spectroscopic, Zeta Potential and Molecular Dynamic Techniques to Study the Interaction between Human Holo-Transferrin and Two Antagonist Drugs: Comparison of Binary and Ternary Systems” (Molecules, 2012)
Where a name gives a salt, the structure may show the parent alone.

Biological target: T1, human holo-transferrin (hTf) (Homo sapiens, UniProt P02787)
T1 construct: gene TF; commercial holo (iron-loaded) glycoprotein, Sigma-Aldrich; mature full length, 679 residues, ~79 kDa, N-lobe and C-lobe, no tag stated
Assay: intrinsic fluorescence quenching titration
Format: binding
Details: double-log, excitation 280 nm, 50 mM potassium phosphate pH 7.4, 298 K
Excerpt: intrinsic fluorescence quenching titration on human holo-transferrin (hTf)

T1 sequence (P02787 20-698): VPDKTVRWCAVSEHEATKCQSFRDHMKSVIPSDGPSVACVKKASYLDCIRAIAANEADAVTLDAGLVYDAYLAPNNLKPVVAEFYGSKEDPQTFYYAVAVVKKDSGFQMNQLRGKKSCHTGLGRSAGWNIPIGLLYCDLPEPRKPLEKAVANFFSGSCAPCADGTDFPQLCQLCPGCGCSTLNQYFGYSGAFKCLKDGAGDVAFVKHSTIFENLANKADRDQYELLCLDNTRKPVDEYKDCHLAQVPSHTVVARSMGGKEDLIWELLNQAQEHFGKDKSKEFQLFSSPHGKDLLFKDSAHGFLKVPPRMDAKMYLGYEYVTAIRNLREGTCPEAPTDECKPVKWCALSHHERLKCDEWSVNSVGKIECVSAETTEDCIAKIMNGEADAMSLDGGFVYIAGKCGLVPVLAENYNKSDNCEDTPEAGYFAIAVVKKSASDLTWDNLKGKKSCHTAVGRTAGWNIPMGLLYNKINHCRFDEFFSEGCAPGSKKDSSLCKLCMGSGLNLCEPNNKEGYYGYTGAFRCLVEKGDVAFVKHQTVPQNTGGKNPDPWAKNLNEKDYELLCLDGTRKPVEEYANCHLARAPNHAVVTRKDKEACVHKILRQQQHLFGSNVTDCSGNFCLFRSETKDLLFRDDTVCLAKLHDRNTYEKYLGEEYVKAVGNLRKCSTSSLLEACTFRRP

| SMILES | K b ( L mol^-1) / λ ex = 280 nM (one site, binary system without ropinirole) | K b ( L mol^-1) / λ ex = 280 nM (stronger of two sites, binary system without aspirin) |
| --- | --- | --- |
| CC(=O)Oc1ccccc1C(=O)O [aspirin, 2-acetoxy benzoic acid] | (7.83 ± 0.02) × 10^3 L mol^-1 |  |
| CCCN(CCC)CCc1cccc2c1CC(=O)N2 [ropinirole hydrochloride, 4-[2-(dipropylamino)ethyl]-1,3-dihydro-2H-indol-2-one monohydro-chloride] |  | (1.69 ± 0.03) × 10^6 L mol^-1 |
